Assay results reported in US20100197584A1, “USE OF CURCUMIN TO BLOCK BRAIN TUMOR FORMATION IN MICE” (Research Foundations of the City University of- New York, priority 2007, published 2010).

How the values were obtained:
[1] = system: HOG (human oligodendroglioma) cells; experiment: Caspase-3/7 assay in HOG cells; assay type: cell-based; settings: 20 μM and 50 μM, 48 h or 96 h (FIG. 3)
Protocol: Cells. B16F10 (mouse melanoma), GL261 (mouse glioma), HOG (human oligodendroglioma), A549 (human lung cancer), and […] (mouse neuroblastoma) cells were cultured separately in DMEM containing 10% (v/v) fetal bovine serum and 1% (v/v) penicillin-streptomycin (PS) and allowed to grow to 40% confluence in a 96-well plate. Curcumin Treatment. Two hours before drug treatment, the medium in each well was replaced with 200 μl Neurobasal medium supplemented with 2% (v/v) B27 and 1% (v/v) PS (Drug-treatment Medium). A stock solution (40 mM) of curcumin was prepared in sterile dimethyl sulfoxide (DMSO) (Example 1). Through serial dilution of each stock solution in Drug-treatment Medium, the following concentrations were obtained: 20 μM and 50 μM (for caspase 3/7 assays) or 25 μM and 50 μM (for MTT assays). Drug-treatment Medium in each well was aspirated, and a drug solution of each concentration or carrier-containing medium (control) was added to triplicate wells of cells (50 μl/well). […] Additionally, the background absorbance was determined from parallel wells containing only the Drug-treatment Medium plus a particular concentration of the drug (no cells). […] Fluorescence in each well was measured using the FLx 800 plate reader (Bio-Tek Instruments, Winooski, Vt.) set at 485/20 nm excitation and 528/20 nm emission wavelengths and the sensitivity of 70. […]

[2] = system: A549 (human lung cancer) cells; experiment: Cell viability assay using MTT, A549; assay type: cell-based; settings: 25 μM and 50 μM, 48 h or 96 h, versus control cells (FIG. 6d)
Protocol: Cells. B16F10 (mouse melanoma), GL261 (mouse glioma), HOG (human oligodendroglioma), A549 (human lung cancer), and N18 (mouse neuroblastoma) cells were cultured separately in DMEM containing 10% (v/v) fetal bovine serum and 1% (v/v) penicillin-streptomycin (PS) and allowed to grow to 40% confluence in a 96-well plate.
Curcumin Treatment. Two hours before drug treatment, the medium in each well was replaced with 200 μl Neurobasal medium supplemented with 2% (v/v) B27 and 1% (v/v) PS (Drug-treatment Medium). A stock solution (40 mM) of curcumin was prepared in sterile dimethyl sulfoxide (DMSO) (Example 1). Through serial dilution of each stock solution in Drug-treatment Medium, the following concentrations were obtained: 20 μM and 50 μM (for caspase 3/7 assays) or 25 μM and 50 μM (for MTT assays). […] Additionally, the background absorbance was determined from parallel wells containing only the Drug-treatment Medium plus a particular concentration of the drug (no cells).
Cell Viability Assay Using MTT (3-(4,5-Dimethylthiazolyl-2)-2,5-Diphenyltetrazolium Bromide). […] Absorbance was measured at 570 nm using a 96-well multi scanner auto-reader with the extraction buffer used as blank. For curcumin samples, the absorbance obtained from the corresponding curcumin plus medium samples was subtracted.

Erk = experiment: Western blot of B16F10 cells, Erk; assay type: cell-based, mouse; settings: 50 μM (FIG. 9)
Protocol: B16F10 cells were cultured in 10-cm plates and then treated in duplicate with carrier or curcumin (50 μM). Following treatment for appropriate time periods, the cells were washed with PBS, lysed in RIPA buffer (PBS containing 1% Nonidet P40, 0.5% sodium deoxycholate, 0.1% SDS, 0.5 mM Na3VO4 plus freshly added PMSF and protease inhibitor cocktail; Boeringer-Roche), and then 20 μg of lysate protein (per lane) were analyzed by SDS-10% PAGE and Western blot analysis. Antibody concentrations used were: anti-phospho-NF-κB (1:1000) (Santa Cruz Biotechnology, Santa Cruz, Calif.), anti-phospho-Akt (1:5000) (Cell Signaling, CA), anti-cyclin D1 (1:1000) (Cell Signaling, CA), anti-BclXL (1:500) (Santa Cruz Biotechnology), anti-VEGF (1:500) (Santa Cruz Biotechnology), and anti-β-actin (1:1000) (Sigma, St. Louis, Mo.).

B16F10 cells = experiment: Intracranial injection of curcumin on brain tumor cells (B16F10); assay type: in vivo, mice; settings: 5 μl of 3 mM curcumin via cannula every other day
From the text: Each mouse was fitted with a stainless steel guide cannula (Plastic Ones, System C313G, Roanoke, Va., USA) to administer curcumin directly to the brain. Cannulas were implanted into the right frontal cortex at the same coordinates as used earlier for intracerebral injection. The guide cannula was fixed to the skull with dental cement. A removable stylet plugged the guide cannula except during the time of drug injection. B16F10 cells (103) were delivered into mice in two sets on the first day. Starting from the third day, 5 μl of curcumin (3 mM) in PBS containing 15% DMSO were infused through the cannula of one set of mice (three), whereas the other set of mice (three) received 5 μl of PBS containing 15% DMSO (carrier). Considering that the brain volume of an adult mouse is about 400 μl, dispersion of this solution would give a final concentration of 37.5 μM curcumin and 0.187% DMSO in the brain. This infusion was started on the third day and then performed every other day, until day 19. The brains of the treated mice were removed and soaked (fixed) in 4% paraformaldehyde.

SMILES: COc1cc(/C=C/C(=O)CC(=O)/C=C/c2ccc(O)c(OC)c2)ccc1O [curcumin]
- caspase-3/7 activity [1]: increased
- cell viability (MTT) [2]: dramatic decrease
- Erk (Western blot) (Erk): suppression
- mice with a detectable brain tumor (B16F10 cells; day 3 to day 19 (FIG. 11)): None
- behavior (B16F10 cells; day 3 to day 19, carrier mice collapsed day 15-25): normal behavior
